Assay results as given in US6831092B1 (priority 1999, dated 2004).
Like-named read-outs stand apart in the source and are kept apart here.

Experiments:
[1] = test system: fungi of tomato late blight; format: in vivo, fungi of tomato late blight on tomato (cultivar: Ponderosa)
[2] = test system: fungi of cucumber downy mildew; test: Test on preventive effect against cucumber downy mildew; format: in vivo, fungi of cucumber downy mildew on cucumber (cultivar: Suyo)
Text: Test on Preventive Effect Against Cucumber Downy Mildew
Cucumber (cultivar: Suyo) was cultivated in a polyethylene pot having a diameter of 7.5 cm, and when the cucumber reached a two-leaf stage, two seedlings of the cucumber were sprayed with a drug solution having predetermined concentrations of sample compounds in an amount of 1, 000 l/ha by a spray gun. On the next day after the treatment, the cucumber was sprayed and inoculated with a zoosporangia suspension of fungi of cucumber downy mildew, and the cucumber was kept in a moist chamber at 20° C. for 18 hours. Then, it was kept in a constant temperature chamber of 20° C. for from 6 to 7 days, and the average area of lesions on the first leaves of the two seedlings was examined to find the incidence according to the following formula. Here, the average area of lesions in the non-treated plot was obtained in the same manner as the treated plot, except that the cucumber was sprayed with water instead of the drug solution by a spray gun. […]
a: Average area of lesions in the treated plot b: Average area of lesions in the non-treated plot
Further, the theoretical value can be calculated from the following Colby's formula:
Theoretical value=(X×Y)/100
X: Incidence (%) in the case of treatment with the compound No. 1 alone Y: Incidence (%) in the case of treatment with the compound a, b, c or d alone When the experimental values are lower than the theoretical values by Colby's formula, the pesticidal composition of the present invention has a synergistic effect of controlling pests. The theoretical values by Colby's formula in such cases are shown in parenthesis ( ) in Tables 1 to 4.

SMILES: Cc1ccc(-c2c(Cl)nc(C#N)n2S(=O)(=O)N(C)C)cc1 [Compd. No. 1, 4-chloro-2-cyano-1-dimethylsulfamoyl-5-(4-methylphenyl)imidazole]
- Incidence of tomato late blight ([1]; Compd. No. 1 0.062 ppm alone (Compd. a 0 ppm), Table 5): 91.3%
- Incidence of tomato late blight ([1]; Compd. No. 1 0.062 ppm alone (Compd. b 0 ppm), Table 6): 90.6%
- Incidence of tomato late blight ([1]; Compd. No. 1 0.062 ppm alone (Compd. c 0 ppm), Table 7): 65.6%
- Incidence of tomato late blight ([1]; Compd. No. 1 0.125 ppm alone (Compd. c 0 ppm), Table 7): 37.5%
- Incidence of tomato late blight ([1]; Compd. No. 1 0.125 ppm alone (Compd. d 0 ppm), Table 8): 100%
- Incidence of tomato late blight ([1]; Compd. No. 1 0.25 ppm alone (Compd. a 0 ppm), Table 5): 25.6%
- Incidence of tomato late blight ([1]; Compd. No. 1 0.25 ppm alone (Compd. b 0 ppm), Table 6): 78.1%
- Incidence of tomato late blight ([1]; Compd. No. 1 0.25 ppm alone (Compd. c 0 ppm), Table 7): 21.9%
- Incidence of tomato late blight ([1]; Compd. No. 1 0.25 ppm alone (Compd. d 0 ppm), Table 8): 100%
- Incidence of tomato late blight ([1]; Compd. No. 1 0.50 ppm alone (Compd. b 0 ppm), Table 6): 50.0%
- Incidence of tomato late blight ([1]; Compd. No. 1 0.50 ppm alone (Compd. c 0 ppm), Table 7): 6.3%
- Incidence of tomato late blight ([1]; Compd. No. 1 0.5 ppm alone (Compd. d 0 ppm), Table 8): 83.4%
- Incidence of tomato late blight ([1]; Compd. No. 1 1.125 ppm alone (Compd. a 0 ppm), Table 5): 69.2%
- Incidence of tomato late blight ([1]; Compd. No. 1 1.125 ppm alone (Compd. b 0 ppm), Table 6): 87.5%
- Incidence of cucumber downy mildew ([2]; Compd. No. 1 0.06 ppm alone (Compd. d 0 ppm), Table 4): 85%
- Incidence of cucumber downy mildew ([2]; Compd. No. 1 0.062 ppm alone (Compd. a 0 ppm), Table 1): 87.6%
- Incidence of cucumber downy mildew ([2]; Compd. No. 1 0.062 ppm alone (Compd. b 0 ppm), Table 2): 84.6%
- Incidence of cucumber downy mildew ([2]; Compd. No. 1 0.062 ppm alone (Compd. c 0 ppm), Table 3): 25.4%
- Incidence of cucumber downy mildew ([2]; Compd. No. 1 0.125 ppm alone (Compd. a 0 ppm), Table 1): 20.5%
- Incidence of cucumber downy mildew ([2]; Compd. No. 1 0.125 ppm alone (Compd. b 0 ppm), Table 2): 56.7%
- Incidence of cucumber downy mildew ([2]; Compd. No. 1 0.125 ppm alone (Compd. c 0 ppm), Table 3): 2.5%
- Incidence of cucumber downy mildew ([2]; Compd. No. 1 0.25 ppm alone (Compd. a 0 ppm), Table 1): 5.1%
- Incidence of cucumber downy mildew ([2]; Compd. No. 1 0.25 ppm alone (Compd. c 0 ppm), Table 3): 2.5%
- Incidence of cucumber downy mildew ([2]; Compd. No. 1 0.25 ppm alone (Compd. d 0 ppm), Table 4): 5.0%
- Incidence of cucumber downy mildew ([2]; Compd. No. 1 0.5 ppm alone (Compd. d 0 ppm), Table 4): 2.5%
- Incidence of cucumber downy mildew ([2]; Compd. No. 1 1 ppm alone (Compd. d 0 ppm), Table 4): 0%

SMILES: CSC1=N[C@@](C)(c2ccccc2)C(=O)N1Nc1ccccc1 [Compd. a, (S)-5-methyl-2-methylthio-5-phenyl-3-phenylamino-3.5-dihydroimidazole-4-one]
- Incidence of tomato late blight ([1]; Compd. a 0.062 ppm alone (Compd. No. 1 0 ppm), Table 5): 100%
- Incidence of tomato late blight ([1]; Compd. a 0.125 ppm alone (Compd. No. 1 0 ppm), Table 5): 97.2%
- Incidence of tomato late blight ([1]; Compd. a 0.25 ppm alone (Compd. No. 1 0 ppm), Table 5): 94.4%
- Incidence of tomato late blight ([1]; Compd. a 0.5 ppm alone (Compd. No. 1 0 ppm), Table 5): 66.1%
- Incidence of tomato late blight ([1]; Compd. a 1 ppm alone (Compd. No. 1 0 ppm), Table 5): 53.5%
- Incidence of cucumber downy mildew ([2]; Compd. a 0.25 ppm alone (Compd. No. 1 0 ppm), Table 1): 82.1%
- Incidence of cucumber downy mildew ([2]; Compd. a 0.5 ppm alone (Compd. No. 1 0 ppm), Table 1): 66.7%
- Incidence of cucumber downy mildew ([2]; Compd. a 1 ppm alone (Compd. No. 1 0 ppm), Table 1): 12.8%

SMILES: Cc1ccc(C(C)NC(=O)[C@@H](NC(=O)OC(C)C)C(C)C)cc1 (stereo partly drawn) [Compd. b, isopropyl 2-methyl-1-((1-p-tolylethyl)carbamoyl)-(S)-propylcarbamate]
- Incidence of tomato late blight ([1]; Compd. b 1 ppm alone (Compd. No. 1 0 ppm), Table 6): 100%
- Incidence of tomato late blight ([1]; Compd. b 4 ppm alone (Compd. No. 1 0 ppm), Table 6): 71.9%
- Incidence of tomato late blight ([1]; Compd. b 8 ppm alone (Compd. No. 1 0 ppm), Table 6): 46.9%
- Incidence of cucumber downy mildew ([2]; Compd. b 2 ppm alone (Compd. No. 1 0 ppm), Table 2): 87.6%
- Incidence of cucumber downy mildew ([2]; Compd. b 4 ppm alone (Compd. No. 1 0 ppm), Table 2): 67.0%
- Incidence of cucumber downy mildew ([2]; Compd. b 8 ppm alone (Compd. No. 1 0 ppm), Table 2): 46.4%
- Incidence of cucumber downy mildew ([2]; Compd. b 16 ppm alone (Compd. No. 1 0 ppm), Table 2): 15.5%

SMILES: CCC(C)(NC(=O)c1cc(Cl)c(C)c(Cl)c1)C(=O)CCl (centres unmarked) [Compd. c, 3.5-dichloro-N-(3-chloro-1-ethyl-1-methyl-2-oxopropyl)-4-methylbenzamide]
- Incidence of tomato late blight ([1]; Compd. c 1 ppm alone (Compd. No. 1 0 ppm), Table 7): 62.5%
- Incidence of tomato late blight ([1]; Compd. c 4 ppm alone (Compd. No. 1 0 ppm), Table 7): 62.5%
- Incidence of tomato late blight ([1]; Compd. c 8 ppm alone (Compd. No. 1 0 ppm), Table 7): 31.3%
- Incidence of cucumber downy mildew ([2]; Compd. c 0.5 ppm alone (Compd. No. 1 0 ppm), Table 3): 95.8%
- Incidence of cucumber downy mildew ([2]; Compd. c 1 ppm alone (Compd. No. 1 0 ppm), Table 3): 71.2%
- Incidence of cucumber downy mildew ([2]; Compd. c 2 ppm alone (Compd. No. 1 0 ppm), Table 3): 61.0%

SMILES: CCNc1nc(CC)c(C(=O)NC(C#N)c2cccs2)s1 (centres unmarked) [Compd. d, N-(a-cyano-2-thienyl)-4-ethyl-2-(ethylamino)-5-thiazole carboxyamide]
- Incidence of tomato late blight ([1]; Compd. d 4 ppm alone (Compd. No. 1 0 ppm), Table 8): 75%
- Incidence of tomato late blight ([1]; Compd. d 8 ppm alone (Compd. No. 1 0 ppm), Table 8): 29.2%
- Incidence of tomato late blight ([1]; Compd. d 16 ppm alone (Compd. No. 1 0 ppm), Table 8): 16.5%
- Incidence of cucumber downy mildew ([2]; Compd. d 1 ppm alone (Compd. No. 1 0 ppm), Table 4): 100%
- Incidence of cucumber downy mildew ([2]; Compd. d 8 ppm alone (Compd. No. 1 0 ppm), Table 4): 15%
- Incidence of cucumber downy mildew ([2]; Compd. d 16 ppm alone (Compd. No. 1 0 ppm), Table 4): 20%
